Source: publication PMC12488499, “Molecular mechanism of ultrafast transport by plasma membrane Ca^2+-ATPases” (Nature, 2025)

Tests used:
PMCA2 [1] = target: T1, PMCA2 (Mus musculus, UniProt Q9R0K7); experiment: cryo-EM structure, E1-ATP state; type: binding; design: gene Atp2b2; mouse PMCA2 (NM_001036684.3) with C-terminal FLAG or His-FLAG tag, expressed in tsA201 NPTN/BSG double knockout cells; with NPTN
PMCA2 [2] = target: T1, PMCA2; experiment: whole-cell patch clamp, BKCa-based Ca2+ transport assay in CHO cells; design: gene Atp2b2; PMCA2 C-terminally fused with GFP, co-expressed with NPTN-RFP in CHO cells; with NPTN

T1 sequence (Q9R0K7 whole entry, the tested form may be a part): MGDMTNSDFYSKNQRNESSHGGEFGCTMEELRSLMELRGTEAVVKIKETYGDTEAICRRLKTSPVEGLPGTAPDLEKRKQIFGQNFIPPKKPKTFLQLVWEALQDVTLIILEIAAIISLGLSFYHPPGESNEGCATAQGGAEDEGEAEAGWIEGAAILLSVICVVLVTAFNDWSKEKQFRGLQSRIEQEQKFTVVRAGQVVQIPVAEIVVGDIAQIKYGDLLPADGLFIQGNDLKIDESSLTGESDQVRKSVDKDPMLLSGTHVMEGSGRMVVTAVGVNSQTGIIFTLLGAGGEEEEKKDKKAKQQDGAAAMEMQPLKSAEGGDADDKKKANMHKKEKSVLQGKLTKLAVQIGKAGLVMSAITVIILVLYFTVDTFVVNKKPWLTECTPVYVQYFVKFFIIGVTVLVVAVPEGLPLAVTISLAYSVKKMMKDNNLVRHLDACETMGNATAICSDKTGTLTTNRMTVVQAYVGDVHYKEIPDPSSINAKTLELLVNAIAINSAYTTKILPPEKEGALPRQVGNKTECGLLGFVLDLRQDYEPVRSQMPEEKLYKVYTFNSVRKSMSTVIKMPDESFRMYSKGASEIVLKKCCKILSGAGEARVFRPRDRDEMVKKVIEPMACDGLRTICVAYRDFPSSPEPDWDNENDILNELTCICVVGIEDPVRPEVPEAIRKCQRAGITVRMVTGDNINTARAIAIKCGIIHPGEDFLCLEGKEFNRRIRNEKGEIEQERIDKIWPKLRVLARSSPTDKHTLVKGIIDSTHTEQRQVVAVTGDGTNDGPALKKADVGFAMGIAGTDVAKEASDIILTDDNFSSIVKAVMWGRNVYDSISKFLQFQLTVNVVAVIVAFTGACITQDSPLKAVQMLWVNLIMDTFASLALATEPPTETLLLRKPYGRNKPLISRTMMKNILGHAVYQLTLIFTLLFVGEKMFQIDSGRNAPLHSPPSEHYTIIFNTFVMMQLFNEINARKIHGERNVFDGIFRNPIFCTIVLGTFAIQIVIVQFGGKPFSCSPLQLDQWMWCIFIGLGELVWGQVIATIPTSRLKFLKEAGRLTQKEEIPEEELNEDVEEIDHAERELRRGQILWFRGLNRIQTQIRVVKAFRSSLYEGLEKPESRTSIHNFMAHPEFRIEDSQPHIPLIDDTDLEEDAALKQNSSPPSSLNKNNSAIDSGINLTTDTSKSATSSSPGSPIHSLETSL
T1 sequence (P97300 29-397 partner): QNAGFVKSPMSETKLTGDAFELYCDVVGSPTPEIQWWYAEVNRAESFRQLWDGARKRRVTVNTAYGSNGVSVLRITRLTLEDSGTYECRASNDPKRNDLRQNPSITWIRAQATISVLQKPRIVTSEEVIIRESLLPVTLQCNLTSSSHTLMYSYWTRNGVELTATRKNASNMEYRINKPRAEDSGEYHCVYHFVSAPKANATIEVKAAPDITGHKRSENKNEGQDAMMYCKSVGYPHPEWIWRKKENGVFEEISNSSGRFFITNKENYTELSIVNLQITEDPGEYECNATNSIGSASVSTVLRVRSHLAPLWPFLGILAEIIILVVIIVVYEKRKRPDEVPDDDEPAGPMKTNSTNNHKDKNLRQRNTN

Row | Structure (SMILES) | cryo-EM structure, E1-ATP state (PMCA2 [1]) | IC50 (PMCA2 [2]) [nM]
1 | Nc1ncnc2c1ncn2[C@@H]1O[C@H](CO[P@](=O)(O)O[P@](=O)(O)NP(=O)(O)O)[C@@H](O)[C@H]1O [AMPPNP] | The bound AMPPNP molecule is shown, with the corresponding cryo-EM density in grey. | 
2 | C/C=C(/C)C(=O)O[C@H]1C(C)=C2[C@H]([C@@H]1OC(=O)CCCCCCC)[C@@](C)(OC(C)=O)C[C@H](OC(=O)CCC)[C@@]1(O)[C@H]2OC(=O)[C@@]1(C)O [thapsigargin] |  | 2600
